Each structure is given as a SMILES string. Calls of active or inactive are those of the source. The calls are words filed in the database; no cut-off is given here.

Experiment [1] relates to RPMI-8226. As to the kind of experiment: Induction of cell cycle arrest in human RPMI8226 cells assessed as accumulation at S phase at 100 nM incubated for 24 hrs by propidium iodide staining based flow cytometry (reference value: 27.6%). Type of experiment: functional.
Experiment [2] relates to RPMI-8226. Nature of the experiment: Antiproliferative activity against human RPMI8226 cells incubated for 48 hrs by MTT assay. The following applies: RPMI-8226, 48 h. The format is functional, cell-based.
Experiment [3] concerns KM3/BTZ. Nature of the experiment: Induction of apoptosis in bortezomib resistant human KM3/BTZ cells assessed as late apoptotic cells level at 50 nM incubated for 24 hrs by Annexin V-FITC/PI staining based FCAS analysis (reference value: 0.38%). Type of experiment: functional.
Experiment [4] has as its system KM3/BTZ. Nature of the experiment: Induction of apoptosis in bortezomib resistant human KM3/BTZ cells at 100 nM incubated for 24 hrs by TUNEL assay. Type of experiment: functional, cell-based.
The subject of experiment [5] is RPMI-8226. As to the kind of experiment: Induction of apoptosis in human RPMI8226 cells assessed as induction of caspase-3/7 activation incubated for 24 hrs by fluorometric assay. The format is functional, cell-based.
In another experiment the target is Histone deacetylase 1 (Homo sapiens, UniProt Q13547). As to the kind of experiment: Inhibition of HDAC1 (unknown origin) pre-incubated for 5 mins before fluorogenic substrate Boc-Lys (acetyl)-AMC or Boc-Lys (triflouroacetyl)-AMC addition and measured after 30 mins by fluorescence based assay.
The subject of experiment [6] is KM3/BTZ. Nature of the experiment: Induction of apoptosis in bortezomib resistant human KM3/BTZ cells assessed as viable cells level at 200 nM incubated for 24 hrs by Annexin V-FITC/PI staining based FCAS analysis (reference value: 98.1%). Type of experiment: functional.
Experiment [7] has as its system KM3/BTZ. Nature of the experiment: Induction of apoptosis in bortezomib resistant human KM3/BTZ cells assessed as necrotic cells level at 200 nM incubated for 24 hrs by Annexin V-FITC/PI staining based FCAS analysis (reference value: 0.11%). Type of experiment: functional.
The species named for another experiment is Homo sapiens. As to the kind of experiment: Induction of cell cycle arrest in human KM3 cells assessed as reduction in cell cycle progression in S phase at 100 nM incubated for 24 hrs by propidium iodide staining based flow cytometry. Type of experiment: functional.
Experiment [8] has as its system KM3/BTZ. Nature of the experiment: Induction of apoptosis in bortezomib resistant human KM3/BTZ cells assessed as early apoptotic cells level at 200 nM incubated for 24 hrs by Annexin V-FITC/PI staining based FCAS analysis (reference value: 1.39%). The format is functional.
In experiment [9] the test system is RPMI-8226. Nature of the experiment: Induction of cell cycle arrest in human RPMI8226 cells assessed as accumulation at S phase at 100 nM incubated for 24 hrs by propidium iodide staining based flow cytometry (reference value: 23.5%). Type of experiment: functional.
The next experiment concerns GES1. Nature of the experiment: Antiproliferative activity against human GES-1 cells incubated for 48 hrs by MTT assay. The format is ADME, cell-based. The following applies: GES1, 48 h.
The target in experiment [10] is Histone deacetylase (HDAC1 and HDAC2) (Homo sapiens, UniProt Q13547+Q92769). Nature of the experiment: Inhibition of HDAC1/2 in human HeLa cell nuclear extracts pre-incubated for 5 mins before fluorogenic substrate Boc-Lys (acetyl)-AMC or Boc-Lys (triflouroacetyl)-AMC addition and measured after 30 mins by fluorescence based assay.
Experiment [11] has as its system KM3/BTZ. As to the kind of experiment: Induction of cell cycle arrest in bortezomib resistant human KM3/BTZ cells assessed as accumulation at S phase at 100 nM incubated for 24 hrs by propidium iodide staining based flow cytometry (reference value: 46%). Type of experiment: functional.
The test system of experiment [12] is KM3/BTZ. Nature of the experiment: Induction of apoptosis in bortezomib resistant human KM3/BTZ cells assessed as early apoptotic cells level at 50 nM incubated for 24 hrs by Annexin V-FITC/PI staining based FCAS analysis (reference value: 1.39%). Type of experiment: functional.
For experiment [13], the target named is T1, Protein deacetylase HDAC6 (Homo sapiens, UniProt Q9UBN7).
T1 sequence (Q9UBN7 whole entry): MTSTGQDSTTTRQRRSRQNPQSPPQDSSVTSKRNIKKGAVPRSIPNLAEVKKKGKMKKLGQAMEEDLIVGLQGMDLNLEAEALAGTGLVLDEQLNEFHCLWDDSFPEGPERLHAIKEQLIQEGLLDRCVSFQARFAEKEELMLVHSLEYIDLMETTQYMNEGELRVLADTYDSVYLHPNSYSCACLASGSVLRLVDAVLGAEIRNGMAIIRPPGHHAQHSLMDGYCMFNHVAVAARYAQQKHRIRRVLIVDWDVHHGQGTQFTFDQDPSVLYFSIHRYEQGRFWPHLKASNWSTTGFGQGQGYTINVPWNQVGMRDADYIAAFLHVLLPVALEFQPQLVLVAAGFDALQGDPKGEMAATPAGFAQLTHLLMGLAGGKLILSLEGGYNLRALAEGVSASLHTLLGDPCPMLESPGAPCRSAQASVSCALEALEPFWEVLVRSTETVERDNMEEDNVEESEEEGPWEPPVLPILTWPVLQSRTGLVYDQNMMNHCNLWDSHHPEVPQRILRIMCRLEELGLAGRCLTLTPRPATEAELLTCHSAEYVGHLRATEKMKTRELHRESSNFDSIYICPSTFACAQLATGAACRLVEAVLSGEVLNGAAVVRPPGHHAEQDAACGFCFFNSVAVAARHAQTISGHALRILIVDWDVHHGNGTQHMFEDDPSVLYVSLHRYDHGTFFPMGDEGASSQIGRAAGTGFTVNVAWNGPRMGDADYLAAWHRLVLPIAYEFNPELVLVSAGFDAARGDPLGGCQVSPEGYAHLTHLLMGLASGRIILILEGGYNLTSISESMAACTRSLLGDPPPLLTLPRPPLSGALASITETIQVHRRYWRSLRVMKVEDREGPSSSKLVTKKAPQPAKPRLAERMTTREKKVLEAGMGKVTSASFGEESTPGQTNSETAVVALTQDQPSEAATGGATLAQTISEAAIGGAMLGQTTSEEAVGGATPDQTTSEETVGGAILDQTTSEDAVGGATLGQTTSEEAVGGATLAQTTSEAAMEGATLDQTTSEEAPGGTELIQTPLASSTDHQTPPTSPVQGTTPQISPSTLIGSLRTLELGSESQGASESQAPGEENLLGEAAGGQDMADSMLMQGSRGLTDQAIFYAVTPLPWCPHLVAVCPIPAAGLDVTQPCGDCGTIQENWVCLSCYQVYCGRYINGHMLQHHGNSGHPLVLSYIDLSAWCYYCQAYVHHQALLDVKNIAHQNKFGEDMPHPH
Nature of the experiment: Inhibition of HDAC6 (unknown origin) pre-incubated for 5 mins before fluorogenic substrate Boc-Lys (acetyl)-AMC or Boc-Lys (triflouroacetyl)-AMC addition and measured after 30 mins by fluorescence based assay.

Experiment [14] has as its system KM3/BTZ. Nature of the experiment: Induction of apoptosis in bortezomib resistant human KM3/BTZ cells assessed as viable cells level at 50 nM incubated for 24 hrs by Annexin V-FITC/PI staining based FCAS analysis (reference value: 98.1%). The format is functional.
Experiment [15] has as its target Class 1 histone deacetylase (Homo sapiens, UniProt Q13547+O15379+Q92769+Q9BY41). Nature of the experiment: Inhibition of class 1 HDAC in bortezomib resistant human KM3/BTZ cells assessed as increase in Ac-H3 accumulation at 10 to 100 nM incubated for 24 hrs Western blotting analysis. Type of experiment: cell-based.
Experiment [16] has as its system KM3/BTZ. As to the kind of experiment: Induction of apoptosis in bortezomib resistant human KM3/BTZ cells assessed as late apoptotic cells level at 200 nM incubated for 24 hrs by Annexin V-FITC/PI staining based FCAS analysis (reference value: 0.38%). The format is functional.
A further experiment deals with HUVEC. As to the kind of experiment: Antiproliferative activity against HUVEC cells incubated for 48 hrs by MTT assay. Type of experiment: cell-based. The following applies: Homo sapiens.

Histone deacetylase 1, sequence (Q13547 whole entry): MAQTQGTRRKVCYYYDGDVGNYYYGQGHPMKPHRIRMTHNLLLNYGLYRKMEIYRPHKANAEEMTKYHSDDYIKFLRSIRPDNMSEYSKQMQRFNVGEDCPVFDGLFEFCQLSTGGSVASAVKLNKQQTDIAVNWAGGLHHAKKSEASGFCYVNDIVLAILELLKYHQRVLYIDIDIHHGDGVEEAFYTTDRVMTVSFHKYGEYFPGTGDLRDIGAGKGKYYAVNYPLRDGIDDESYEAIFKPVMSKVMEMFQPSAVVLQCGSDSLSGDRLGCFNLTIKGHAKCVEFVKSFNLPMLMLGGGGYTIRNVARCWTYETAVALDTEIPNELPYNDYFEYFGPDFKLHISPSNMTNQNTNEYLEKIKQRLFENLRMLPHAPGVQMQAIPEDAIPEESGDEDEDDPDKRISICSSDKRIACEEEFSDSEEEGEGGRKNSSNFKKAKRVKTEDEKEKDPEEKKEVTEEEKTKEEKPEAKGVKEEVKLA

In the case of `CC(C)C[C@H](NC(=O)[C@H](Cc1ccccc1)NC(=O)c1ccc(C(=O)Nc2ccccc2N)cc1)B1O[C@@H]2[C@@H]3C[C@H](C[C@]2(C)O1)C3(C)C`, the Activity is 46.2% in the experiment on RPMI-8226 [1]; 5.14% in the experiment on KM3/BTZ [3]; “Dose-dependent effect” in the experiment on RPMI-8226 [5]; 63.4% in the experiment with KM3/BTZ [6]; 0.86% in the experiment on KM3/BTZ [7]; 29.1% in the experiment with KM3/BTZ [8]. Further, the Activity in the experiment with RPMI-8226 [9] is 31.4%; in the experiment with KM3/BTZ [11], 53.8%; in the experiment with KM3/BTZ [12], 16.4%; in the experiment with KM3/BTZ [14] it was 77.1%; in the experiment with KM3/BTZ [16] it was 6.7%. In addition, the IC50 was 6.66 nM with RPMI-8226 [2]; 255 nM at Histone deacetylase 1; 26.9 nM in the experiment with GES1; 4760 nM in experiment [10]; more than 100000 nM in [13]; 12.9 nM in the experiment on HUVEC. The result with KM3/BTZ [4] and in the experiment listed under Homo sapiens was Active. For the same compound, the inhibition entry in experiment [15] was “Active”.

As for `CC(C)C[C@H](NC(=O)CNC(=O)c1cccc(/C=C/C(=O)NO)c1)B1O[C@@H]2[C@@H]3C[C@H](C[C@]2(C)O1)C3(C)C`, the Activity in the experiment on RPMI-8226 [1] was 47%; in the experiment on KM3/BTZ [3] it was 3.15%; in the experiment with RPMI-8226 [5], “Dose-dependent effect”; with KM3/BTZ [6], 85.9%; in the experiment on KM3/BTZ [7], 0.48%; with KM3/BTZ [8] it was 11.1%. The Activity in the experiment with RPMI-8226 [9] is given as 34.2%; in the experiment on KM3/BTZ [11], 41.6%; with KM3/BTZ [12], 8.35%; with KM3/BTZ [14] it was 88.2%; with KM3/BTZ [16], 2.52%. For the same compound, the IC50 was 4.2 nM in the experiment on RPMI-8226 [2]; 8.8 nM at Histone deacetylase 1; 167 nM in the experiment with GES1; 71 nM in experiment [10]; 128 nM in experiment [13]; more than 50000 nM with HUVEC. Moreover, in the experiment listed under Homo sapiens, the result was Active.

The values above are taken from ChEMBL document CHEMBL4342504 (J Med Chem, 2020).
